Test results published in the NIST ThermoML archive (doi:10.1021/je034017j).

Test: xn = mol fraction of the nth substance listed
Conditions: 101 kPa, Liquid

CCCCCCO [hexan-1-ol] + CCCCCCCC
Conditions	kinematic viscosity [m2/s]	mass density [kg/m3]
293.15 K, x2 = 0	6.61e-06	818.84
293.15 K, x2 = 0.0618	5.49e-06	809.74
293.15 K, x2 = 0.086	–	806.25
293.15 K, x2 = 0.1114	4.74e-06	802.62
293.15 K, x2 = 0.1597	–	795.86
293.15 K, x2 = 0.1891	–	791.83
293.15 K, x2 = 0.1928	3.74e-06	791.32
293.15 K, x2 = 0.2346	–	785.68
293.15 K, x2 = 0.3022	2.75e-06	776.82
293.15 K, x2 = 0.4039	2.08e-06	764.07
293.15 K, x2 = 0.495	1.67e-06	753.22
293.15 K, x2 = 0.4994	–	752.71
293.15 K, x2 = 0.6088	1.31e-06	740.42
293.15 K, x2 = 0.715	1.08e-06	729.21
293.15 K, x2 = 0.7991	–	720.79
293.15 K, x2 = 0.8086	9.47e-07	719.86
293.15 K, x2 = 0.8381	–	717.02
293.15 K, x2 = 0.8767	–	713.37
293.15 K, x2 = 0.9078	8.43e-07	710.5
293.15 K, x2 = 0.9272	–	708.75
293.15 K, x2 = 0.9458	8.03e-07	707.09
303.15 K, x2 = 0	4.88e-06	811.56
303.15 K, x2 = 0.0233	–	808.05
303.15 K, x2 = 0.051	–	803.93
303.15 K, x2 = 0.086	3.85e-06	798.81
303.15 K, x2 = 0.1189	–	794.07
303.15 K, x2 = 0.1308	3.41e-06	792.38
303.15 K, x2 = 0.1581	–	788.53
303.15 K, x2 = 0.188	2.94e-06	784.37
303.15 K, x2 = 0.1922	–	783.8
303.15 K, x2 = 0.2352	–	777.94
303.15 K, x2 = 0.2632	–	774.2
303.15 K, x2 = 0.308	2.15e-06	768.33
303.15 K, x2 = 0.369	–	760.56
303.15 K, x2 = 0.3936	1.75e-06	757.47
303.15 K, x2 = 0.4152	–	754.82
303.15 K, x2 = 0.4508	–	750.49
303.15 K, x2 = 0.4994	1.38e-06	744.75
303.15 K, x2 = 0.5249	–	741.79
303.15 K, x2 = 0.578	–	735.78
303.15 K, x2 = 0.5852	1.17e-06	734.98
303.15 K, x2 = 0.6255	–	730.55
303.15 K, x2 = 0.7026	9.66e-07	722.36
303.15 K, x2 = 0.7143	–	721.15
303.15 K, x2 = 0.774	–	715.1
303.15 K, x2 = 0.7909	–	713.42
303.15 K, x2 = 0.8042	8.42e-07	712.11
303.15 K, x2 = 0.8532	–	707.39
303.15 K, x2 = 0.8767	7.73e-07	705.17
303.15 K, x2 = 0.9009	–	702.91
303.15 K, x2 = 0.9272	7.36e-07	700.52
303.15 K, x2 = 0.947	–	698.76
313.15 K, x2 = 0	3.69e-06	804.28
313.15 K, x2 = 0.0229	–	800.79
313.15 K, x2 = 0.0502	–	796.68
313.15 K, x2 = 0.0646	3.13e-06	794.53
313.15 K, x2 = 0.0825	–	791.88
313.15 K, x2 = 0.1067	2.81e-06	788.35
313.15 K, x2 = 0.1205	–	786.35
313.15 K, x2 = 0.1569	–	781.14
313.15 K, x2 = 0.2007	2.24e-06	774.99
313.15 K, x2 = 0.2441	–	769.04
313.15 K, x2 = 0.2976	1.78e-06	761.89
313.15 K, x2 = 0.3132	–	759.85
313.15 K, x2 = 0.3441	–	755.84
313.15 K, x2 = 0.3882	1.46e-06	750.23
313.15 K, x2 = 0.3938	–	749.53
313.15 K, x2 = 0.4703	–	740.16
313.15 K, x2 = 0.4916	1.18e-06	737.63
313.15 K, x2 = 0.4949	–	737.24
313.15 K, x2 = 0.5873	1e-06	726.62
313.15 K, x2 = 0.6023	–	724.95
313.15 K, x2 = 0.6746	–	717.11
313.15 K, x2 = 0.6964	–	714.81
313.15 K, x2 = 0.7108	8.36e-07	713.3
313.15 K, x2 = 0.757	–	708.56
313.15 K, x2 = 0.7619	–	708.06
313.15 K, x2 = 0.7893	7.56e-07	705.32
313.15 K, x2 = 0.8428	–	700.08
313.15 K, x2 = 0.8748	–	697.03
313.15 K, x2 = 0.9109	6.67e-07	693.67
313.15 K, x2 = 0.9297	–	691.97
313.15 K, x2 = 0.9599	6.41e-07	689.33
